Test results published in patent US10947188B2, “Small molecule ferroptosis inducers” (THE TRUSTEES OF COLUMBIA UNIVERSITY IN THE CITY OF NEW YORK, priority 2016, dated 2021).
Read-outs that look alike come from different tables or passages of the source.

System: HT-1080
Experiment: Modulatory profiling: Alamar Blue viability, lethal compound cotreated with death modulator (EC50, AUC); as to AUC HT.BHA: reference of the scale not given here; as to AUC HT.EGTA: reference of the scale not given here
Type: cell-based
Design: AUC, modulator HT.3MA / AUC, modulator HT.ALLN / AUC HT.ATA / AUC HT.ActD / AUC HT.BHA / AUC HT.BHT / AUC HT.BocD / AUC HT.CHX / AUC HT.Co2+ / AUC HT.DPQ / AUC HT.EGTA / AUC HT.Lmim / AUC HT.NAD+ / AUC HT.Nec-1 / AUC HT.SP600125 / AUC HT.TLCK / AUC HT.U0126: unit not given beside the values
Conditions: for AUC HT.ATA: HT-1080, modulator ATA; for AUC HT.ActD: HT-1080, modulator ActD; for AUC HT.BHA: HT-1080, modulator BHA; for AUC HT.BHT: HT-1080, modulator BHT; for AUC HT.BocD: HT-1080, modulator BocD; for AUC HT.CHX: HT-1080, modulator CHX; for AUC HT.Co2+: HT-1080, modulator Co2+; for AUC HT.CspA: HT-1080, modulator CspA; for AUC HT.DPQ: HT-1080, modulator DPQ; for AUC HT.Gd3+: HT-1080, modulator Gd3+; for AUC HT.LNAME: HT-1080, modulator LNAME; for AUC HT.Lmim: HT-1080, modulator Lmim; for AUC HT.NAD+: HT-1080, modulator NAD+; for AUC HT.NMMA: HT-1080, modulator NMMA; for AUC HT.Nec-1: HT-1080, modulator Nec-1; for AUC HT.Pepstatin: HT-1080, modulator Pepstatin; for AUC HT.SP600125: HT-1080, modulator SP600125; for AUC HT.TLCK: HT-1080, modulator TLCK; for AUC HT.U0126: HT-1080, modulator U0126; for HT.atoc (AUC) / HT.bCarotene (AUC) / HT.deferox (AUC) / HT.digoxin (AUC) / HT.trolox (AUC) / HT.zVAD (AUC): HT-1080; for HT.atoc (AUC): modulator atoc; for HT.bCarotene (AUC): modulator bCarotene; for HT.deferox (AUC): modulator deferox; for HT.digoxin (AUC): modulator digoxin; for HT.trolox (AUC): modulator trolox; for HT.zVAD (AUC): modulator zVAD; for AUC, modulator HT.3MA / AUC, modulator HT.ALLN: HT-1080 cells, modulatory profile value (AUC); for AUC, modulator HT.3MA: lethal compound cotreated with modulator 3MA; for AUC, modulator HT.ALLN: lethal compound cotreated with modulator ALLN

Row | SMILES | AUC HT.ATA | AUC HT.ActD | AUC HT.BHA | AUC HT.BHT | AUC HT.BocD | AUC HT.CHX | AUC HT.Co2+ | AUC HT.CspA | AUC HT.DPQ | AUC HT.Gd3+ | AUC HT.LNAME | AUC HT.Lmim | AUC HT.NAD+ | AUC HT.NMMA | AUC HT.Nec-1 | AUC HT.Pepstatin | AUC HT.SP600125 | AUC HT.TLCK | AUC HT.U0126 | HT.atoc (AUC) | further results
1 | COc1cccc2c1C(=O)c1c(O)c3c(c(O)c1C2=O)C[C@@](O)(C(=O)CO)C[C@@H]3O[C@H]1C[C@H](N)[C@H](O)[C@H](C)O1 [Doxorubicin] | 0.02841 | 0.007993 | 0.02167 | −0.06815 | 0.05959 | 0.08993 | 0.2627 | −0.1098 | 0.01107 | 0.03741 | 0.006685 | 0.08822 | 0.1872 | 0.02832 | 0.007577 | 0.008958 | −0.02148 | 0.0633 | −0.02036 | 0.00993 | AUC HT.EGTA (HT-1080, modulator EGTA): 0.03492; HT.bCarotene (AUC): 0.01512; HT.deferox (AUC): 0.2044; HT.digoxin (AUC): 0.1981; HT.trolox (AUC): −0.01413; HT.zVAD (AUC): 0.05138; AUC, modulator HT.3MA: 0.03088; AUC, modulator HT.ALLN: 0.03102
2 | CS[C@H]1SC[C@H]2C(=O)N(C)[C@@H](C(C)C)C(=O)OC[C@@H](NC(=O)c3cnc4ccccc4n3)C(=O)N[C@@H](C)C(=O)N(C)[C@@H]1C(=O)N(C)[C@@H](C(C)C)C(=O)OC[C@@H](NC(=O)c1cnc3ccccc3n1)C(=O)N[C@@H](C)C(=O)N2C [Echinomycin] | 0.04087 | 0.06604 | 0.02424 | −0.04076 | 0.07385 | 0.1436 | 0.1492 | −0.08426 | 0.006918 | 0.01526 | 0.01178 | 0.06784 | 0.178 | −0.0009733 | 0.02093 | 0.006861 | 0.08228 | 0.006436 | 0.01676 | 0.1464 | AUC HT.EGTA (HT-1080, modulator EGTA): 0.006916; HT.bCarotene (AUC): −0.004968; HT.deferox (AUC): 0.1665; HT.digoxin (AUC): 0.09969; HT.trolox (AUC): −0.02423; HT.zVAD (AUC): 0.07367; AUC, modulator HT.3MA: 0.3083; AUC, modulator HT.ALLN: 0.084
3 | COc1cc([C@@H]2c3cc4c(cc3[C@@H](O[C@@H]3O[C@@H]5CO[C@@H](C)O[C@H]5[C@H](O)[C@H]3O)[C@H]3COC(=O)[C@H]23)OCO4)cc(OC)c1O [Etoposide] | −0.0363 | −0.09944 | 0.04757 | −0.0005481 | 0.05886 | 0.113 | 0.3926 | −0.177 | 0.006422 | 0.02668 | 0.005444 | 0.05001 | 0.0527 | 0.01603 | −0.005949 | −0.001737 | 0.00478 | 0.1489 | −0.02627 | −0.006276 | AUC HT.EGTA (HT-1080, modulator EGTA): 0.02457; HT.bCarotene (AUC): 0.00393; HT.deferox (AUC): 0.1428; HT.digoxin (AUC): 0.1311; HT.trolox (AUC): 0.01328; HT.zVAD (AUC): 0.03817; AUC, modulator HT.3MA: 0.007208; AUC, modulator HT.ALLN: 0.03277
4 | CC(C)C[C@H](NC(=O)[C@H](CC(C)C)NC(=O)[C@H](CC(C)C)NC(=O)OCc1ccccc1)B(O)O [MG262] | 0.0332 | −0.05854 | −0.0765 | −0.1219 | 0.007582 | −0.003977 | −0.04425 | −0.2145 | 0.008104 | −0.003168 | 0.007002 | 0.001457 | 0.07679 | −0.004229 | −0.06817 | −0.006069 | −0.036 | 0.03566 | −0.06664 | 0.05222 | AUC HT.EGTA (HT-1080, modulator EGTA): −0.001152; HT.bCarotene (AUC): −0.009255; HT.deferox (AUC): −0.08465; HT.digoxin (AUC): 0.05597; HT.trolox (AUC): −0.02068; HT.zVAD (AUC): −0.05837; AUC, modulator HT.3MA: −0.06563; AUC, modulator HT.ALLN: −0.1356
5 | Nc1ccccc1NC(=O)c1ccc(CNC(=O)OCc2cccnc2)cc1 [MS275] | 0.0212 | −0.1982 | −0.04868 | −0.1794 | 0.02448 | −0.1189 | −0.1027 | −0.1886 | −0.01058 | −0.01027 | 0.004204 | −0.09728 | 0.0008794 | −0.00333 | −0.05557 | −0.01654 | −0.09903 | −0.02404 | −0.01884 | −0.01016 | AUC HT.EGTA: −0.005811; HT.bCarotene (AUC): −0.03005; HT.deferox (AUC): −0.1653; HT.digoxin (AUC): −0.1793; HT.trolox (AUC): −0.02599; HT.zVAD (AUC): 0.0222; AUC, modulator HT.3MA: −0.09204; AUC, modulator HT.ALLN: −0.1325
6 | O=C1c2c(O)ccc(O)c2C(=O)c2c(NCCNCCO)ccc(NCCNCCO)c21 [Mitoxantrone] | 0.02422 | −0.02073 | 0.02091 | −0.0249 | 0.06802 | 0.04002 | 0.3817 | −0.1127 | 0.006504 | 0.03227 | 0.01298 | 0.05678 | 0.1502 | 0.0236 | 0.01073 | 0.02067 | −0.01575 | 0.06003 | −0.03205 | 0.04839 | AUC HT.EGTA (HT-1080, modulator EGTA): 0.01802; HT.bCarotene (AUC): −0.003915; HT.deferox (AUC): 0.1001; HT.digoxin (AUC): 0.1321; HT.trolox (AUC): −0.01388; HT.zVAD (AUC): 0.03446; AUC, modulator HT.3MA: 0.02955; AUC, modulator HT.ALLN: 0.07355
7 | [N-]=[N+]=[N-].[Na+] [NaN3] | 0.03107 | 0.1197 | −0.04061 | −0.1432 | 0.008996 | 0.04722 | 0.03941 | −0.04777 | −0.00797 | −0.004604 | −0.01351 | −0.07613 | 0.06683 | 0.002822 | −0.02968 | −0.004337 | −0.004079 | 0.0226 | 0.02567 | −0.031 | AUC HT.EGTA (HT-1080, modulator EGTA): −0.002548; HT.bCarotene (AUC): 0.00681; HT.deferox (AUC): 0.07882; HT.digoxin (AUC): 0.01948; HT.trolox (AUC): −0.001376; HT.zVAD (AUC): 0.01031; AUC, modulator HT.3MA: −0.05719; AUC, modulator HT.ALLN: 0.06335
